From article PMC7002685, “Inhibition of vascular calcification by inositol phosphates derivatized with ethylene glycol oligomers” (Nature Communications, 2020)
Like-named read-outs stand apart in the source and are kept apart here.

Tests used:
[1] = PK s.c. in healthy and adenine/high-phosphate-diet (uremic) rats; type: in vivo; conditions: male, Sprague-Dawley, rat, sc; for AUC(0-t): read-out: AUC0-360 (converted)
Protocol: For many drugs, the PK profile depends on the patient’s renal status. Therefore, (OEG2)2-IP4 PK profile was also determined in an adenine and high-phosphate-diet-induced rat model of uremia, in which the compound was administered after serum creatinine levels had increased by fourfold relative to baseline (Fig. 4g, h). […] Similar results were observed following s.c. administration (Supplementary Table 5).
To study PK in uremic animals, male Sprague-Dawley rats (Charles River Laboratories, L’Arbresle, France) were housed two per cage with free access to water and standard chow (rat/mouse maintenance diet, SSNIFF Spezialdiäten GmbH, Soest, Germany) and submitted to a 12-h light/dark cycle. Animals were fed a low-protein (2.5%) diet containing high phosphorus (1.3% phosphorus and 0.7% calcium) and 0.3% adenine to induce uremia (SSNIFF Spezialdiäten GmbH). Control animals were fed same diet but without adenine. Every 10 days, a sample of blood was punctured at the tail vein of each animal. Serum and urine creatinine, calcium, and phosphorus were then assessed using standard colorimetric biochemistry analysis (Cobas Mira, Roche, Basel, Switzerland). When a fourfold increase of creatinine was observed compared to control, the rat was considered uremic and suitable for PK experiments. The method was validated using eight animals on control- and adenine-supplemented diet respectively. For PK studies, on the morning of the experimental day, a catheter was inserted in the right carotid artery under halothane anesthesia. Subsequently, rats were allowed to recover for 3 h and uremic and non-uremic rats, respectively, were assigned to three groups of six rats each. […] Blood aliquots were drawn after drug administration, centrifuged, decanted, and stored at −80 °C until serum drug quantification by LC-MS, as well as analysis of serum creatinine, calcium, and phosphorus (Cobas Mira).
The bioanalytical method for (OEG2)2-IP4 in rat plasma was further optimized, qualified, and applied to the comparative PK study in adenine and high-phosphate diet-induced VC vs. vitamin D-induced VC animals. The LC-MS/MS analyses were carried out using a Dionex Ultimate RSLC ultra-high-pressure liquid chromatography (UHPLC) system (Thermo Fisher Scientific) coupled with a TSQ Quantiva^TM triple quadrupole mass spectrometer. The samples were stored at 5 °C in the autosampler prior to and during the analyses. […] Gradient elution (solvent A, 20 mM ammonium acetate in water (pH 5); solvent B, ACN) was used according to the program reported in Supplementary Table 18. The injection volume was 10 µL. MS/MS parameters (MRM acquisition, cycle time 0.2 s) for (OEG2)2-IP4 are reported in Supplementary Table 19 and the ESI source, working in negative ionization mode, applied the following parameters: static spray voltage 3000 V ion transfer tube and vaporizer temperatures at 400 and 100 °C, respectively; sheath and auxiliary gas (nitrogen) flow rates at 80 and 3 (arbitrary units). For the quantitative determination in rat plasma, product ion m/z 158.9 was selected because it provided the best sensitivity and selectivity. Calibration curve and quality control samples were prepared by adding 2 μL of working solution to 38 μL rat blank K3EDTA plasma (Biochemed, Winchester, VA) and precipitating plasma protein by addition of 120 μL of MeOH including internal standard OEG11-IP5. Samples were vortexed 1 min and centrifuged at (22,000 × g, 4 °C, 10 min). Supernatants (90 μL) were then transferred into a glass vial with insert and injected onto LC-MS/MS system. Both in adenine and high-phosphate diet-induced VC and vitamin D-induced VC rat PK samples were prepared for analysis in an analogous manner as done for spiked samples (assay volume 40 μL). The LLOQ and LOD in rat plasma for (OEG2)2-IP4 were 50 and 10 ng/mL, respectively. The ULOQ and detection was 50,000 ng/mL.

[2] = target: T1, Cyclooxygenase COX-2 (Homo sapiens, UniProt P35354); experiment: Off-target 118010; type: biochemical
T1 construct: purchased Eurofins Panlabs Discovery Services Taiwan, Ltd
T1 sequence (P35354 18-604): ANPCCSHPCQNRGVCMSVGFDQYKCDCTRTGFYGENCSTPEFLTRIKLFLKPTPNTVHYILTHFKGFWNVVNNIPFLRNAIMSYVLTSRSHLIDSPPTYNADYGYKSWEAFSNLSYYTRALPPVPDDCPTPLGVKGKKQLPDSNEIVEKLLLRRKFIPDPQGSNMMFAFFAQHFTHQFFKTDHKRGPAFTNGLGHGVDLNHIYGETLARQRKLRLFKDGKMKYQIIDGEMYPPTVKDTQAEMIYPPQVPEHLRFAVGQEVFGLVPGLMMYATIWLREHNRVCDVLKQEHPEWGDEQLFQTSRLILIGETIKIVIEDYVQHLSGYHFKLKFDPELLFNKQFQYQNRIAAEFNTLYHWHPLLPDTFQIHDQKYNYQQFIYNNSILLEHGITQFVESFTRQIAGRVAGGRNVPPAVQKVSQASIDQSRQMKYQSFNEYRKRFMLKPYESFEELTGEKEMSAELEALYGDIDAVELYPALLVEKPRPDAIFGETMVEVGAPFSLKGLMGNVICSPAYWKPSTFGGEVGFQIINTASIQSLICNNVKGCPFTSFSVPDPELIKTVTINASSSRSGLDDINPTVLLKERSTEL
Protocol: (§1) The potential off-target activity of 10 µM (OEG2)2-IP4 was assessed against a panel of 87 enzymes, receptors, or ion channels that are used in standard safety pharmacology screens.
(§2) 3.2. Off-target screening assay
(§3) The experiments were conducted by a contract research organization (Eurofins Panlabs Discovery Services Taiwan, Ltd.) and details on the respective assays can be retrieved via the catalog number provided in Supplementary Table 11 from the company’s webpage
(§4) (https://www.eurofinsdiscoveryservices.com/). […]
(§5) At sacrifice the left tibia of animals of the rat model with dietary adenine/high-phosphate-induced uremia and VC was collected, fixed with 70% v/v EtOH and embedded in methyl methacrylate. The trabecular bone compartment is known to be the most metabolic active i.e. actively re-structured bone compartment in CKD. Therefore, histomorphometric and micro-computed tomography (µCT) analysis of bone was performed on the trabecular compartment. Tibial sections were Goldner-stained for histomorphometric analysis of the proximal metaphysis using the AxioVision Release 4.5 software, as […]
(§6) described previously5. […]

[3] = target: T2, Muscarinic M3 (Homo sapiens, UniProt P20309); experiment: Off-target 252810; type: binding
T2 construct: purchased Eurofins Panlabs Discovery Services Taiwan, Ltd
T2 sequence (P20309 whole entry): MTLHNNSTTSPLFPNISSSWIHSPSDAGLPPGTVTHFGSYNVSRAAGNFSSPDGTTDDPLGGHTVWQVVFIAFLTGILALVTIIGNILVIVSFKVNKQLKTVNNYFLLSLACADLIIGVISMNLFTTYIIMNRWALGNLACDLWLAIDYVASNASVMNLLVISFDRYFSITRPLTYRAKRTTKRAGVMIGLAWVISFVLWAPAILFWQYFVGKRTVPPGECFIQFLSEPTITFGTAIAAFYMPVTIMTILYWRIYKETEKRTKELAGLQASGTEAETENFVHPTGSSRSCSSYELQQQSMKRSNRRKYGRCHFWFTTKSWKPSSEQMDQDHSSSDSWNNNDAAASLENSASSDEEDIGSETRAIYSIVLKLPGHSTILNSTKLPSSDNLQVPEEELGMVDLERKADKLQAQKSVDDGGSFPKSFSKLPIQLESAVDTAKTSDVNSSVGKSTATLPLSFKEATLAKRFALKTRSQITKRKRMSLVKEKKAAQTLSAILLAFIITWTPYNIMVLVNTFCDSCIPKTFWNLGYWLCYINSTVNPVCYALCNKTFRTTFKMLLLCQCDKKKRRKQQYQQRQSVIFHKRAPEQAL
Protocol: as §1, §2, §3, §4, §5, §6

[4] = tested on: Potassium Channel [KATP]; experiment: Off-target 265600; type: binding, Hamster; conditions: 10 µM
Protocol: as §1, §2
The experiments were conducted by a contract research organization (Eurofins Panlabs Discovery
Services Taiwan, Ltd.) and details on the respective assays can be retrieved via the catalog number
provided in Supplementary Table 11 from the company’s webpage
as §4

[5] = target: T3, Serotonin (5-Hydroxytryptamine) 5-HT2A (Homo sapiens, UniProt P28223); experiment: Off-target 271650; type: binding
T3 construct: purchased Eurofins Panlabs Discovery Services Taiwan, Ltd
T3 sequence (P28223 whole entry): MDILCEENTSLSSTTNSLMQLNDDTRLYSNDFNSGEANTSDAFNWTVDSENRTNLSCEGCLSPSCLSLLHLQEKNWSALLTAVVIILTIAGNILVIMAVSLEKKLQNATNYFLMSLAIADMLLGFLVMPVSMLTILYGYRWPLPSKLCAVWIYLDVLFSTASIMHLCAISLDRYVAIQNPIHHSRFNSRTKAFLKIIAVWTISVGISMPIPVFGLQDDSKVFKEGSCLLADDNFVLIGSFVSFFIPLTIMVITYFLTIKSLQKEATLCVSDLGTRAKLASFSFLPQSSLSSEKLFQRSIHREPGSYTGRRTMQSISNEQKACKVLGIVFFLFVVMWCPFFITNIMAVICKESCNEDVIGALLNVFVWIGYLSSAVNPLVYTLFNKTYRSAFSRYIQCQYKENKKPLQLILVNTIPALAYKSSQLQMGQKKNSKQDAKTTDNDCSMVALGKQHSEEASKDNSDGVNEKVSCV
Protocol: as §1, §2, §3, §4, §5, §6

[6] = serum, 10 mg/kg, 10 mg/kg s.c., Healthy
[7] = serum, 10 mg/kg, 10 mg/kg s.c., Uremic

## COCCOCCO[C@@H]1[C@@H](OP(=O)(O)O)[C@H](OCCOCCOC)[C@@H](OP(=O)(O)O)[C@@H](OP(=O)(O)O)[C@H]1OP(=O)(O)O [(OEG2)2-IP4, 4,6-Di-O-(methoxy-diethyleneglycol)-myo-inositol-1,2,3,5-tetrakis(phosphate)]
[1]; plasma, 10 mg/kg, Healthy, s.c., Time 3 h, individual rats, read-out: plasma concentration (Figure 4h)
  concentration at 3 h: 2570 nM
[1]; [6]
  AUC(0-inf): 19.7 µM·h
  MRT: 1.1 h
  half-life: 79 ± 27 min
  AUC(0-t): 19.2 µM·h
[1]; [7]
  AUC(0-inf): 37.9 µM·h
  MRT: 2.07 h
  half-life: 123 ± 64 min
  AUC(0-t): 31.8 µM·h
[1]; serum, 10 mg/kg s.c., Healthy
  Cmax: 12 ± 4 µM
[2]
  inhibition at 10 µM: 8%
[3]
  inhibition at 10 µM: -6%
[4]
  % Inhibition: 14%
[5]
  inhibition at 10 µM: -1%
